Molecular target: T1, human SGLT2 (Homo sapiens, UniProt P31639)
T1 construct: expressed in transfected cells
T1 sequence (P31639 1-672): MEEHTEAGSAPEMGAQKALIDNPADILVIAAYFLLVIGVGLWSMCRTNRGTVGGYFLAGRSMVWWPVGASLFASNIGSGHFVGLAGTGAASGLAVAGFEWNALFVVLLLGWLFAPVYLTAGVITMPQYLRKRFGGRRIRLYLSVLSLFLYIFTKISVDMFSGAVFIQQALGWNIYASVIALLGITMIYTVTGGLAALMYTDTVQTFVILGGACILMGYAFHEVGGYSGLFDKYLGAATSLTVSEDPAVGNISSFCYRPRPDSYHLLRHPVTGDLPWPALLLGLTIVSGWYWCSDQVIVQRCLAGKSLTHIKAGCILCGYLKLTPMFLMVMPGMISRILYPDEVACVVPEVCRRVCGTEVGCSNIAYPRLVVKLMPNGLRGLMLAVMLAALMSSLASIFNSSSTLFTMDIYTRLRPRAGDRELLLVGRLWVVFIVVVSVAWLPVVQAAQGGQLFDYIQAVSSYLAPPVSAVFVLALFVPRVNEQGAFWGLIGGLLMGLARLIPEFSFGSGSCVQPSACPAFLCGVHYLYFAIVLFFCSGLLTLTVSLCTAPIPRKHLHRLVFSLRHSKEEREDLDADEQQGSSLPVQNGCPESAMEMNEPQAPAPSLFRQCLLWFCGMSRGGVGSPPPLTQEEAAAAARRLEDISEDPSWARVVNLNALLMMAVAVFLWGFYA
Experiment: Determination of SGLT2 inhibiting activity using human SGLT2 expressing cell ([14C]-α-methyl-D-glucopyranoside uptake)
Type: cell-based
Settings: HEK-SGLT2 cells, 1 mM [14C]-α-methyl-D-glucopyranoside, 37° C., 30 min
Protocol: Determination of SGLT2 Inhibiting Activity Using Human SGLT2 Expressing Cell
1) Preparation of Vector Expressing Human SGLT2 cDNA in Animal Cell
Amplification was performed by PCR using human SGLT2 cDNA clone (Origene: Clone Number, TC303267; GenBank accession number, NM 003041) as a template. The sense oligonucleotide primer for PCR was 5′-[…]-3′ (Primer 3: SEQ ID NO: 3 in the sequence listing),
and the antisense oligonucleotide primer was 5′-[…]-3′ (Primer 4: SEQ ID NO: 4 in the sequence listing). The PCR product was subjected to agarose electrophoresis, then a target DNA fragment was recovered from a single band corresponding to 2037 bases, digested with restriction enzymes HindIII and XhoI, and introduced into the HindIII/XhoI site of vector pCMV-Script (Stratagene) to obtain SGLT2 expressing plasmid pCMV-SGLT2. A HindIII/XhoI fragment was excised from pCMV-SGLT2 and introduced into the BamHI/XhoI site of pENTR1A (Gateway, Invitrogen) to prepare pENTR-SGLT2. Retrovirus vector pLPCX (Clontech) into which Gateway Vector Conversion System Cassette A (Invitrogen) was introduced was used as the destination plasmid to prepare SGLT2 expressing retrovirus vector pLPCX-SGLT2.
2) Establishment of Human SGLT2 Expressing Cell
The retrovirus pLPCX-SGLT2 obtained in 1) was transfected into integrin αvβ3 expressing HEK-293 cells, the cells were treated with antibiotic G418 (brand name, Geneticin: Invitrogen) and puromycin (Clontech) to obtain HEK-SGLT2 cells stably expressing the target vector having resistance. The stably expressing cells were cultured and maintained in DMEM medium containing […] G418, […] puromycin, 3 mM KGT-1075, and 10% FBS.
3) Determination of SGLT2 Inhibiting Activity
HEK-SGLT2 cells were suspended at a density of 10^6 cells/mL in DMEM medium containing 250 mg/mil G418, 1 mg/ml puromycin, and 10% FBS, and 100 μL was seeded in each well of a type 1 collagen-coated 96-well culture plate (Corning). On the following day, the medium was replaced with a sugar uptake buffer (10 mM HEPES [pH 7.5], 5 mM Tris-HCl [pH 7.5], 140 mM NaCl, 2 mM KCl, 1 mM CaCl2, 1 mM MgCl2), and the cells were cultured with 1 mM [^14C]-α-methyl-D-glucopyranoside (0.1 mCi) and a test compound at 37° C. for 30 min, and then washed 3 times with a washing buffer (10 mM HEPES (pH 7.5), 5 mM Tris-HCl (pH 7.5), 140 mM choline chloride, 2 mM KCl, 1 mM CaCl2, 1 mM MgCl2). 100 μL of liquid scintillation cocktail (brand name, Supermix: Perkin-Elmer) was added to each well of the 96-well plate and stirred for 10 min, and then radioactivity was determined with micro β (Perkin-Elmer), a type of liquid scintillation counter. The value obtained by deducting the radioactivity in the presence of an excess amount of an SGLT2 inhibiting compound as the background from each measured value was taken as the sugar uptake activity, the inhibition rate (%) was calculated from the control sugar uptake activity obtained without using a test compound and the sugar uptake activity obtained using a test compound having a predetermined concentration, and the concentrations of the test compound at which the sugar uptake activity was inhibited by 50% were assessed.

IC50 [nM]	SMILES
39	COc1ccc(Cc2c(OC)cc(CO)cc2O[C@@H]2O[C@H]([C@@H](C)O)[C@@H](O)[C@H](O)[C@H]2O)cc1 [Example 83, 5-Hydroxymethyl-3-methoxy-2-(4-methoxybenzyl)phenyl 7-deoxy-D-glycero-β-D-gluco-heptopyranoside]
6.3	COc1ccc(Cc2c(F)cc(CO)cc2O[C@@H]2O[C@H]([C@@H](C)O)[C@@H](O)[C@H](O)[C@H]2O)cc1 [Example 84, 3-Fluoro-5-hydroxymethyl-2-(4-methoxybenzyl)phenyl 7-deoxy-D-glycero-β-D-gluco-heptopyranoside]
19	C[C@@H](O)[C@H]1O[C@@H](Oc2cc(CO)cc(F)c2Cc2ccc(C3CC3)cc2)[C@H](O)[C@@H](O)[C@@H]1O [Example 88, 2-(4-Cyclopropylbenzyl)-3-fluoro-5-hydroxymethylphenyl 7-deoxy-D-glycero-β-D-gluco-heptopyranoside]
35	CCc1ccc(Cc2c(C)cc(CO)cc2O[C@@H]2O[C@H]([C@@H](C)O)[C@@H](O)[C@H](O)[C@H]2O)cc1 [Example 89, 2-(4-Ethylbenzyl)-5-hydroxymethyl-3-methylphenyl 7-deoxy-D-glycero-β-D-gluco-heptopyranoside]
13	CCOc1ccc(Cc2ccc(CO)cc2O[C@@H]2O[C@H]([C@@H](C)O)[C@@H](O)[C@H](O)[C@H]2O)cc1 [Example 93, 2-(4-Ethoxybenzyl)-5-hydroxymethylphenyl 7-deoxy-D-glycero-β-D-gluco-heptapyranoside]
11	COc1ccc(Cc2c(C)cc(CO)cc2O[C@@H]2O[C@H]([C@@H](C)O)[C@@H](O)[C@H](O)[C@H]2O)cc1 [Example 94, 5-Hydroxymethyl-2-(4-methoxybenzyl)-3-methylphenyl 7-deoxy-D-glycero-β-D-gluco-heptopyranoside]
49	C[C@@H](O)[C@H]1O[C@@H](Oc2cc(CO)cc(Cl)c2Cc2ccc(OC3CC3)cc2)[C@H](O)[C@@H](O)[C@@H]1O [Example 95, 3-Chloro-2-(4-cyclopropoxybenzyl)-5-hydroxymethyl-phenyl 7-deoxy-D-glycero-β-D-gluco-heptopyranoside]
36	Cc1cc(CO)cc(O[C@@H]2O[C@H]([C@@H](C)O)[C@@H](O)[C@H](O)[C@H]2O)c1Cc1ccc(OC2CC2)cc1 [Example 96, 2-(4-Cyclopropoxybenzyl)-5-hydroxymethyl-3-methyl-phenyl 7-deoxy-D-glycero-β-D-gluco-heptopyranoside]
11	Cc1ccc(Cc2c(F)cc(CO)cc2O[C@@H]2O[C@H]([C@@H](C)O)[C@@H](O)[C@H](O)[C@H]2O)cc1 [Example 97, 3-Fluoro-5-hydroxymethyl-2-(4-methylbenzyl)phenyl 7-deoxy-D-glycero-β-D-gluco-heptopyranoside]
17	Cc1ccc(Cc2ccc(CO)cc2O[C@@H]2O[C@H]([C@@H](C)O)[C@@H](O)[C@H](O)[C@H]2O)cc1 [Example 98, 5-Hydroxymethyl-2-(4-methylbenzyl)phenyl 7-deoxy-D-glycero-β-D-gluco-heptapyranoside]
136	C=Cc1cc(CO)cc(O[C@@H]2O[C@H]([C@@H](C)O)[C@@H](O)[C@H](O)[C@H]2O)c1Cc1ccc(OC)cc1 [Example 101, 5-Hydroxymethyl-2-(4-methoxybenzyl)-3-vinyl-phenyl 7-deoxy-D-glycero-β-D-gluco-heptopyranoside]
